According to ChEMBL document CHEMBL1124292, “Synthesis and evaluation of neoplastic cell growth inhibition of 1-N-alkylamide analogues of glycero-3-phosphocholine” (1988):
pIC50: −log10 of the molar value.

System: HL-60
Assay: Inhibitory dose against HL60 human leukemic cells after incubation for 48 h
Assay type: functional
Conditions: HL-60, 48 h, read-out: ID50 (the source's name)

CCCCCCCCCCCCCCCC(=O)NCC(COP(=O)([O-])OCC[N+](C)(C)C)OC (stereo unspecified)
pIC50: 5.48

CCCCCCCCCCCCCCCC(=O)NCC(COP(=O)([O-])OCC[N+](C)(C)C)OCC (stereo unspecified)
pIC50: 5.63

CCCCCCCCCCCCCCCCCC(=O)NCC(COP(=O)([O-])OCC[N+](C)(C)C)OC (stereo unspecified)
pIC50: 5.61

CCCCCCCCCCCCCCCC(=O)NCC(O)COP(=O)([O-])OCC[N+](C)(C)C (stereo unspecified)
pIC50: < 5.00

CCCCCCCCCCCCCCCCCC(=O)NCC(COP(=O)([O-])OCC[N+](C)(C)C)OCC (stereo unspecified)
pIC50: 5.79

CCCCCCCCCCCCCCCCCCOCC(COP(=O)([O-])OCC[N+](C)(C)C)OC (racemic) [EDELFOSINE]
pIC50: 5.61
